Test results from ChEMBL document CHEMBL4346687, “Design, synthesis and biological evaluation of novel uracil derivatives bearing 1, 2, 3-triazole moiety as thymidylate synthase (TS) inhibitors and as potential antitumor drugs” (Eur J Med Chem, 2019).

System: not listed separately
Experiment: Cytotoxicity against human HPAEpic cells assessed as reduction in cell viability after 24 hrs by MTT assay
Format: cell-based
Details: HPAEpic cells

Row | SMILES | CC50 at 24 h [µM]
1 | Cc1ccc(-n2cc(-c3ccc(NS(=O)(=O)c4c[nH]c(=O)[nH]c4=O)cc3)nn2)cc1 | 29.1
2 | Cc1ccc(-n2cc(-c3cccc(NS(=O)(=O)c4c[nH]c(=O)[nH]c4=O)c3)nn2)cc1 | 10.6
3 | O=c1[nH]cc(S(=O)(=O)Nc2ccccc2-c2cn(-c3ccccc3)nn2)c(=O)[nH]1 | 14.3
4 | O=c1[nH]cc(S(=O)(=O)Nc2ccc(-c3cn(-c4ccc(Cl)cc4)nn3)cc2)c(=O)[nH]1 | 14.8
5 | O=c1[nH]cc(S(=O)(=O)Nc2cccc(-c3cn(-c4ccc(Cl)cc4)nn3)c2)c(=O)[nH]1 | 14
6 | Cc1ccccc1-n1cc(-c2ccccc2NS(=O)(=O)c2c[nH]c(=O)[nH]c2=O)nn1 | 9.67
7 | Cc1cccc(-n2cc(-c3ccccc3NS(=O)(=O)c3c[nH]c(=O)[nH]c3=O)nn2)c1 | 12.3

System: not listed separately
Experiment: Cytotoxicity against human IOSE-80 cells assessed as reduction in cell viability after 24 hrs by MTT assay
Format: cell-based
Details: IOSE-80 cells

Row | SMILES | CC50 at 24 h [µM]
8 | Cc1ccc(-n2cc(-c3ccc(NS(=O)(=O)c4c[nH]c(=O)[nH]c4=O)cc3)nn2)cc1 | 30.5
9 | Cc1ccc(-n2cc(-c3cccc(NS(=O)(=O)c4c[nH]c(=O)[nH]c4=O)c3)nn2)cc1 | 12.8
10 | O=c1[nH]cc(S(=O)(=O)Nc2ccccc2-c2cn(-c3ccccc3)nn2)c(=O)[nH]1 | 10.5
11 | O=c1[nH]cc(S(=O)(=O)Nc2ccc(-c3cn(-c4ccc(Cl)cc4)nn3)cc2)c(=O)[nH]1 | 17.7
12 | O=c1[nH]cc(S(=O)(=O)Nc2cccc(-c3cn(-c4ccc(Cl)cc4)nn3)c2)c(=O)[nH]1 | 6.26
13 | Cc1ccccc1-n1cc(-c2ccccc2NS(=O)(=O)c2c[nH]c(=O)[nH]c2=O)nn1 | 17.4
14 | Cc1cccc(-n2cc(-c3ccccc3NS(=O)(=O)c3c[nH]c(=O)[nH]c3=O)nn2)c1 | 15.8

System: not listed separately
Experiment: (§1) Cytotoxicity against human GES-1 cells assessed as reduction in cell viability after 24 hrs by MTT assay
Format: cell-based, GES1
Details: GES-1 cells

Row | SMILES | CC50 at 24 h [µM]
15 | Cc1ccc(-n2cc(-c3cccc(NS(=O)(=O)c4c[nH]c(=O)[nH]c4=O)c3)nn2)cc1 | 15.8
16 | O=c1[nH]cc(S(=O)(=O)Nc2ccccc2-c2cn(-c3ccccc3)nn2)c(=O)[nH]1 | > 100
17 | O=c1[nH]cc(S(=O)(=O)Nc2ccc(-c3cn(-c4ccc(Cl)cc4)nn3)cc2)c(=O)[nH]1 | 23.3
18 | O=c1[nH]cc(S(=O)(=O)Nc2cccc(-c3cn(-c4ccc(Cl)cc4)nn3)c2)c(=O)[nH]1 | 11.3
19 | Cc1ccccc1-n1cc(-c2ccccc2NS(=O)(=O)c2c[nH]c(=O)[nH]c2=O)nn1 | 19.9
20 | Cc1cccc(-n2cc(-c3ccccc3NS(=O)(=O)c3c[nH]c(=O)[nH]c3=O)nn2)c1 | 23.7

System: GES1
Experiment: as §1
Format: cell-based
Details: ges1, 24 h

Row | SMILES | CC50
21 | Cc1ccc(-n2cc(-c3ccc(NS(=O)(=O)c4c[nH]c(=O)[nH]c4=O)cc3)nn2)cc1 | Non-Toxic

System: not listed separately
Experiment: (§2) Cytotoxicity against human L02 cells assessed as reduction in cell viability after 24 hrs by MTT assay
Format: cell-based
Details: L02 cells

Row | SMILES | CC50 at 24 h [µM]
22 | Cc1ccc(-n2cc(-c3cccc(NS(=O)(=O)c4c[nH]c(=O)[nH]c4=O)c3)nn2)cc1 | 23.1
23 | O=c1[nH]cc(S(=O)(=O)Nc2ccccc2-c2cn(-c3ccccc3)nn2)c(=O)[nH]1 | 10.6
24 | O=c1[nH]cc(S(=O)(=O)Nc2ccc(-c3cn(-c4ccc(Cl)cc4)nn3)cc2)c(=O)[nH]1 | 42.9
25 | O=c1[nH]cc(S(=O)(=O)Nc2cccc(-c3cn(-c4ccc(Cl)cc4)nn3)c2)c(=O)[nH]1 | 9.86
26 | Cc1ccccc1-n1cc(-c2ccccc2NS(=O)(=O)c2c[nH]c(=O)[nH]c2=O)nn1 | 56.6
27 | Cc1cccc(-n2cc(-c3ccccc3NS(=O)(=O)c3c[nH]c(=O)[nH]c3=O)nn2)c1 | 21.9

System: L02
Experiment: as §2
Format: cell-based
Details: l02, 24 h

Row | SMILES | CC50
28 | Cc1ccc(-n2cc(-c3ccc(NS(=O)(=O)c4c[nH]c(=O)[nH]c4=O)cc3)nn2)cc1 | Non-Toxic

System: A549
Experiment: cells
Details: Homo sapiens, A549, 24 h
Description: Antiproliferative activity against human A549 cells assessed as reduction in cell viability after 24 hrs by MTT assay

Row | SMILES | IC50 [µM]
29 | Cc1ccc(-n2cc(-c3ccc(NS(=O)(=O)c4c[nH]c(=O)[nH]c4=O)cc3)nn2)cc1 | 5.56
30 | Cc1ccc(-n2cc(-c3cccc(NS(=O)(=O)c4c[nH]c(=O)[nH]c4=O)c3)nn2)cc1 | 3.63
31 | O=c1[nH]cc(S(=O)(=O)Nc2ccc(-c3cn(-c4ccc(Cl)cc4)nn3)cc2)c(=O)[nH]1 | 1.21
32 | O=c1[nH]cc(S(=O)(=O)Nc2cccc(-c3cn(-c4ccc(Cl)cc4)nn3)c2)c(=O)[nH]1 | 1.73

The next lines start with the values.

Row | IC50 [µM] | SMILES
33 | 6.79 | O=c1[nH]cc(S(=O)(=O)Nc2ccccc2-c2cn(-c3ccccc3)nn2)c(=O)[nH]1
34 | 3.21 | Cc1ccccc1-n1cc(-c2ccccc2NS(=O)(=O)c2c[nH]c(=O)[nH]c2=O)nn1
35 | 1.87 | Cc1cccc(-n2cc(-c3ccccc3NS(=O)(=O)c3c[nH]c(=O)[nH]c3=O)nn2)c1

System: OVCAR-3
Experiment: cells
Details: Homo sapiens, OVCAR-3, 24 h
Description: Antiproliferative activity against human OVCAR3 cells assessed as reduction in cell viability after 24 hrs by MTT assay

Row | SMILES | IC50 [µM]
36 | Cc1ccc(-n2cc(-c3ccc(NS(=O)(=O)c4c[nH]c(=O)[nH]c4=O)cc3)nn2)cc1 | 5.63
37 | Cc1ccc(-n2cc(-c3cccc(NS(=O)(=O)c4c[nH]c(=O)[nH]c4=O)c3)nn2)cc1 | 3.54
38 | O=c1[nH]cc(S(=O)(=O)Nc2ccc(-c3cn(-c4ccc(Cl)cc4)nn3)cc2)c(=O)[nH]1 | 2.16
39 | O=c1[nH]cc(S(=O)(=O)Nc2cccc(-c3cn(-c4ccc(Cl)cc4)nn3)c2)c(=O)[nH]1 | 2.04

Continued, values first:

Row | IC50 [µM] | SMILES
40 | 6.65 | O=c1[nH]cc(S(=O)(=O)Nc2ccccc2-c2cn(-c3ccccc3)nn2)c(=O)[nH]1
41 | 6.55 | Cc1ccccc1-n1cc(-c2ccccc2NS(=O)(=O)c2c[nH]c(=O)[nH]c2=O)nn1
42 | 3.15 | Cc1cccc(-n2cc(-c3ccccc3NS(=O)(=O)c3c[nH]c(=O)[nH]c3=O)nn2)c1

System: SGC-7901
Experiment: cells
Details: Homo sapiens, SGC-7901, 24 h
Description: Antiproliferative activity against human SGC7901 cells assessed as reduction in cell viability after 24 hrs by MTT assay

Row | SMILES | IC50 [µM]
43 | Cc1ccc(-n2cc(-c3ccc(NS(=O)(=O)c4c[nH]c(=O)[nH]c4=O)cc3)nn2)cc1 | 8.35
44 | Cc1ccc(-n2cc(-c3cccc(NS(=O)(=O)c4c[nH]c(=O)[nH]c4=O)c3)nn2)cc1 | 9.43
45 | O=c1[nH]cc(S(=O)(=O)Nc2ccc(-c3cn(-c4ccc(Cl)cc4)nn3)cc2)c(=O)[nH]1 | 1.83
46 | O=c1[nH]cc(S(=O)(=O)Nc2cccc(-c3cn(-c4ccc(Cl)cc4)nn3)c2)c(=O)[nH]1 | 2.16

Other lines, results leading:

Row | IC50 [µM] | SMILES
47 | 11.8 | O=c1[nH]cc(S(=O)(=O)Nc2ccccc2-c2cn(-c3ccccc3)nn2)c(=O)[nH]1
48 | 9.57 | Cc1ccccc1-n1cc(-c2ccccc2NS(=O)(=O)c2c[nH]c(=O)[nH]c2=O)nn1
49 | 3.51 | Cc1cccc(-n2cc(-c3ccccc3NS(=O)(=O)c3c[nH]c(=O)[nH]c3=O)nn2)c1

System: HepG2
Experiment: cells
Details: Homo sapiens, HepG2, 24 h
Description: Antiproliferative activity against human HepG2 cells assessed as reduction in cell viability after 24 hrs by MTT assay

Row | SMILES | IC50 [µM]
50 | Cc1ccc(-n2cc(-c3ccc(NS(=O)(=O)c4c[nH]c(=O)[nH]c4=O)cc3)nn2)cc1 | 11.6
51 | Cc1ccc(-n2cc(-c3cccc(NS(=O)(=O)c4c[nH]c(=O)[nH]c4=O)c3)nn2)cc1 | > 20
52 | O=c1[nH]cc(S(=O)(=O)Nc2ccc(-c3cn(-c4ccc(Cl)cc4)nn3)cc2)c(=O)[nH]1 | 1.98
53 | O=c1[nH]cc(S(=O)(=O)Nc2cccc(-c3cn(-c4ccc(Cl)cc4)nn3)c2)c(=O)[nH]1 | 1.96

Second part, the compound after the results:

Row | IC50 [µM] | SMILES
54 | 6.16 | O=c1[nH]cc(S(=O)(=O)Nc2ccccc2-c2cn(-c3ccccc3)nn2)c(=O)[nH]1
55 | 13.9 | Cc1ccccc1-n1cc(-c2ccccc2NS(=O)(=O)c2c[nH]c(=O)[nH]c2=O)nn1
56 | 3.62 | Cc1cccc(-n2cc(-c3ccccc3NS(=O)(=O)c3c[nH]c(=O)[nH]c3=O)nn2)c1
